Results: patent publication US9695174B2, “Inhibitor of breast cancer resistance protein (BCRP)” (Millennium Pharmaceuticals, Inc., priority 2013, dated 2017)
Like-named read-outs stand apart in the source and are kept apart here.

How the values were obtained:
[1] = target: CYP2C8 (Homo sapiens (Human), UniProt P10632); assay: CYP inhibition in human liver microsomes (amodiaquine); format: in vitro ADME; conditions: read-out: CYP inhibition IC50 2C8
Description: (§1) Reactions are initiated by the addition of β-NADPH (2 mM) and MgCl2 (3 mM) in 0.1-M potassium phosphate buffer, pH 7.4. Reactions are incubated for 12 minutes at 37° C., and then terminated by the addition of an equal volume of ACN containing 1-μM carbutamide (IS). The plates are refrigerated at approximately 4° C. for 15 minutes and then centrifuged in order to pellet the precipitated proteins. The supernatants are analyzed by LC/MS/MS for the amount of metabolite formed by each CYP isozyme.

[2] = In vivo pharmacokinetic profile in Sprague-Dawley rats
Description: Approximately 200 μL of whole blood is collected from the jugular vein catheter of each animal into tubes containing the anticoagulant dipotassium ethylenediaminetetraacetic acid (K2EDTA) and is further processed into plasma at approximately 4° C. […] Pharmacokinetic analysis of the individual plasma concentration data is performed using a nonvalidated program (Phoenix™ WinNonlin®, Version 6.1 [Pharsight Corp (Mountain View, Calif., USA)]).

[3] = tested on: CYP3A4/5; assay: CYP inhibition in human liver microsomes (midazolam); format: in vitro ADME; conditions: midazolam substrate, read-out: CYP inhibition IC50 3A-M
Description: as §1

[4] = target: CYP2C19 (Homo sapiens (Human), UniProt P33261); assay: CYP inhibition in human liver microsomes (S-mephenytoin); format: in vitro ADME; conditions: read-out: CYP inhibition IC50 2C19
CYP2C19, sequence (P33261 whole entry): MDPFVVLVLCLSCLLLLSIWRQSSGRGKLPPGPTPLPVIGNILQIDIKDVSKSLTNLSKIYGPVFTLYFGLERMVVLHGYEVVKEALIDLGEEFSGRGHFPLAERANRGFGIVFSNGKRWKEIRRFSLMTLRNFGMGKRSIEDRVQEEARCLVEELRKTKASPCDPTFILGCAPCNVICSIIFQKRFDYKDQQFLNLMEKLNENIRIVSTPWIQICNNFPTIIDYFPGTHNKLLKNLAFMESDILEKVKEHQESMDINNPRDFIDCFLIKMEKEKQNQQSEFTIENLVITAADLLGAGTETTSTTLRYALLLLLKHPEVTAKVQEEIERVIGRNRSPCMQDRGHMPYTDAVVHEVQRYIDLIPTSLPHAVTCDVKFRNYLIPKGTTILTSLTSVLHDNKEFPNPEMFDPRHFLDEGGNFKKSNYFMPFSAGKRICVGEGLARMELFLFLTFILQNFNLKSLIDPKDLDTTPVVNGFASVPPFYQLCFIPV
Description: as §1

[5] = target: BCRP efflux transporter (Homo sapiens (Human), UniProt Q9UNQ0); assay: Bi-directional transport study in Caco-2 cells, inhibition of BCRP efflux of 3H-estrone-3-sulfate
BCRP efflux transporter, sequence (Q9UNQ0 whole entry): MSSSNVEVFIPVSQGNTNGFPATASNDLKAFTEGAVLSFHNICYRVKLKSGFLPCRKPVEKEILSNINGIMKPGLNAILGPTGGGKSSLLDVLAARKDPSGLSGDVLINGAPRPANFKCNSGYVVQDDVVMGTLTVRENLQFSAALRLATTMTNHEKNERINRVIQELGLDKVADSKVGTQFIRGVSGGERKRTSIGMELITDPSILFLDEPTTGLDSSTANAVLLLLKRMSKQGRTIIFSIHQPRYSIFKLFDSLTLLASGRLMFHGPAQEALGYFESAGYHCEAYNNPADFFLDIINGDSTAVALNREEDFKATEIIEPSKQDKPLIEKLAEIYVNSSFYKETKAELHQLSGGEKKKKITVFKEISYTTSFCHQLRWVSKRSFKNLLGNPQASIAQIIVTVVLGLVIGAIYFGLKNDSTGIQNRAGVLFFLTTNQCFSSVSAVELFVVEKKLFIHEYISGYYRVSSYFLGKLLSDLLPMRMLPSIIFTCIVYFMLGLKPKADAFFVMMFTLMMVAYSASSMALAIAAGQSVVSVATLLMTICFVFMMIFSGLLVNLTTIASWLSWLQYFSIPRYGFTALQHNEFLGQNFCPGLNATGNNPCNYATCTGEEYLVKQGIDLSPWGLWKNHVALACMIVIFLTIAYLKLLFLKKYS
Description: To determine potency of compounds on inhibition of transporters, bi-directional transport studies are performed in Caco-2 cells (American Type Culture Collection, Manassas, Va.) at 37° C. in air, according toXia et al. (Expression, localization and functional characteristics of breast cancer resistance protein in Caco-2 cells. Drug Met. Disp., 33 (5): 637-643 (2005)). Prior to each experiment, the confluent cell monolayers on Transwell™ inserts are washed and equilibrated for 30 minutes with transport media (Hank's balanced salt solution (HBSS) containing 10 mM of N-2-hydroxyethyl-piperazine-N′-2-ethanesulfonic acid (HEPES) and 10 mM of glucose, pH 7.4). […] At preset time points, 0.05 mL aliquot of receiving solutions are sampled from the basolateral side (for A-to-B transport) or from the apical side (for B-to-A transport), and replaced immediately with an equal amount of fresh transport media except at the last time point (the end of the incubation). The radioactivity in each sample is measured by 1450 MicroBeta TriLux, a microplate scintillation and luminescence counter (PerkinElmer Life Sciences). Radioactivity (^3H) of the dosing solution is measured and used to calculate the initial donor concentration of the substrate.

[6] = target: CYP2D6 (Homo sapiens (Human), UniProt P10635); assay: CYP inhibition in human liver microsomes (dextromethorphan); format: in vitro ADME; conditions: read-out: CYP inhibition IC50 2D6
CYP2D6, sequence (P10635 whole entry): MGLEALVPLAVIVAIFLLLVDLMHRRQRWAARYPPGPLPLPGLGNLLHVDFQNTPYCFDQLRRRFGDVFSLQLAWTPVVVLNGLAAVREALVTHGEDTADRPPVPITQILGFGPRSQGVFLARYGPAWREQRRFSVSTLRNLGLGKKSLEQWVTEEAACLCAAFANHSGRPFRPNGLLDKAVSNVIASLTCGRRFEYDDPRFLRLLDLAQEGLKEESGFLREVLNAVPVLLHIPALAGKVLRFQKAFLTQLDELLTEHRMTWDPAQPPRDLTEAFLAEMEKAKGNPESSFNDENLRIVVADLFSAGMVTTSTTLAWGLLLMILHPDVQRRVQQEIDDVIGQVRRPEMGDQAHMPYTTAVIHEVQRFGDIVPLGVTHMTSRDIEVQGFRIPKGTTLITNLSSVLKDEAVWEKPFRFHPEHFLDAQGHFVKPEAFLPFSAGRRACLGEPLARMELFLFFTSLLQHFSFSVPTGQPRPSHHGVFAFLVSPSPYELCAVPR
Description: as §1

[7] = target: CYP2C9 (Homo sapiens (Human), UniProt P11712); assay: CYP inhibition in human liver microsomes (diclofenac); format: in vitro ADME; conditions: read-out: CYP inhibition IC50 2C9
CYP2C9, sequence (P11712 whole entry): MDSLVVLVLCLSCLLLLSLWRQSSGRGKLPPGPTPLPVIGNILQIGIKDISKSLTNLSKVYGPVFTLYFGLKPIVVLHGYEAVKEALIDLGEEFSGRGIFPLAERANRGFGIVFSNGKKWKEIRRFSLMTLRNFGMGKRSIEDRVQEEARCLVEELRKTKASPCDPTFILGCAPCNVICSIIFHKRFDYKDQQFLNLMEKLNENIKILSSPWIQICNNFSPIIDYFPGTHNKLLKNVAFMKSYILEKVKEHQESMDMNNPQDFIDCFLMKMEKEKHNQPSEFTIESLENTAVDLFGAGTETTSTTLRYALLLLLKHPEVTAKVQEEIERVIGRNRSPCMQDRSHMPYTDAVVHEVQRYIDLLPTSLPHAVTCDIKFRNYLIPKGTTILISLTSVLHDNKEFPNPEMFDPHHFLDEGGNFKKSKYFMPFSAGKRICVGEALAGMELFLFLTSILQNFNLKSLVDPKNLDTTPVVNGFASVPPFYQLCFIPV
Description: as §1

[8] = target: CYP1A2 (Homo sapiens (Human), UniProt P05177); assay: CYP inhibition in human liver microsomes (phenacetin); format: in vitro ADME; conditions: read-out: CYP inhibition IC50 1A2
CYP1A2, sequence (P05177 whole entry): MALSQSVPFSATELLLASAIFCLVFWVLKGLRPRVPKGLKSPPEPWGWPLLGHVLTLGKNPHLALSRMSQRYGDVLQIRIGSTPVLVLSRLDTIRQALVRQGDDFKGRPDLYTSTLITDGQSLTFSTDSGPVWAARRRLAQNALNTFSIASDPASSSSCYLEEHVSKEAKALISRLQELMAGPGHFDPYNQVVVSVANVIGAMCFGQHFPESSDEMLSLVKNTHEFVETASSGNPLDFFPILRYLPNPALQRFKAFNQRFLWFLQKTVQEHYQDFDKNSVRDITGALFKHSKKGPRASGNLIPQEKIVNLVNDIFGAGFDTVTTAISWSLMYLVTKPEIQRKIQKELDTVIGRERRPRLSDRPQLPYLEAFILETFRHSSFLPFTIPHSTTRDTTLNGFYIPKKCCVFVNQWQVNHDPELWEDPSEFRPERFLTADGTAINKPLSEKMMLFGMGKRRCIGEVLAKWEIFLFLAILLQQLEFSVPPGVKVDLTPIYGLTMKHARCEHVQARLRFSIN
Description: as §1

[9] = target: P-gp transporter (Homo sapiens (Human), UniProt P08183); assay: Bi-directional transport study in Caco-2 cells, inhibition of P-gp efflux of 3H-digoxin; format: cell-based
P-gp transporter, sequence (P08183 whole entry): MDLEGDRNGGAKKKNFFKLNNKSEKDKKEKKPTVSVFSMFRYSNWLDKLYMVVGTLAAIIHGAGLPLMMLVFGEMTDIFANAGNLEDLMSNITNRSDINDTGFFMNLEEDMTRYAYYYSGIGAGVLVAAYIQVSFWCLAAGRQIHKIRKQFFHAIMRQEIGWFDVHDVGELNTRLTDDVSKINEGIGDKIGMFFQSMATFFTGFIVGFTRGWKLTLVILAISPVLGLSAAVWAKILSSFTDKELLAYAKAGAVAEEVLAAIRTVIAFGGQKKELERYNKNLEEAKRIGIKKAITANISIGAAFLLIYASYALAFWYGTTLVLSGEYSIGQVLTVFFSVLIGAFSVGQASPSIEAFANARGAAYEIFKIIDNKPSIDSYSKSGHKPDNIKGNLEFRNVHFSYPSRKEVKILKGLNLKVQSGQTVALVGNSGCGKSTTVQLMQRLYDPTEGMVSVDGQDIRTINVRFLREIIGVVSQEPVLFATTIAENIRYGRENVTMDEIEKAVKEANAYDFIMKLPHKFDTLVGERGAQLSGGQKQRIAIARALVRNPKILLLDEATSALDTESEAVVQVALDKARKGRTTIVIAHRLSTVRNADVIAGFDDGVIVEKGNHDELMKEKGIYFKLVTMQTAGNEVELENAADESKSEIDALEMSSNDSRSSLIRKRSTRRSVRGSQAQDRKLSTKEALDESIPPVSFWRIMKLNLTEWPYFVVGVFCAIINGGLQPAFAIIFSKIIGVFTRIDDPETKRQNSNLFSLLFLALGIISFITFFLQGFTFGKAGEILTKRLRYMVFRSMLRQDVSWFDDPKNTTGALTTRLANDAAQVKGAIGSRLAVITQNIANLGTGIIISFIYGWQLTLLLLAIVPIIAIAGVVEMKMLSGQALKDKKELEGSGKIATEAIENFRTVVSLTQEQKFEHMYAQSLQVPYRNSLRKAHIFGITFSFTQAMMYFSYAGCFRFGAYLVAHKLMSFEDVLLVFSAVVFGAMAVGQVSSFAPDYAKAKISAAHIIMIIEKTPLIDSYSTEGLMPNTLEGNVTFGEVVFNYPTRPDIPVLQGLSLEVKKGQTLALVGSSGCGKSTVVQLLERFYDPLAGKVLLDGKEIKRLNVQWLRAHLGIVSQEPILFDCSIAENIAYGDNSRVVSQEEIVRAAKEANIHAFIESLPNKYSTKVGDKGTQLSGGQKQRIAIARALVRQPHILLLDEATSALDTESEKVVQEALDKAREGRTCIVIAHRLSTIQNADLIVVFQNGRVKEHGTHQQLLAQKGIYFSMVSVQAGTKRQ

[10] = Sprague-Dawley, rat, plasma, IV-JVC, 2 mg/kg
[11] = Sprague-Dawley, rat, plasma, PO-JVC, 20 mg/kg
[12] = read-out: IC50 on BCRP efflux transporter, Caco-2 cells, substrate 3H-Estrone-3-sulfate (26 nM)

CYP2C8, sequence (P10632 whole entry): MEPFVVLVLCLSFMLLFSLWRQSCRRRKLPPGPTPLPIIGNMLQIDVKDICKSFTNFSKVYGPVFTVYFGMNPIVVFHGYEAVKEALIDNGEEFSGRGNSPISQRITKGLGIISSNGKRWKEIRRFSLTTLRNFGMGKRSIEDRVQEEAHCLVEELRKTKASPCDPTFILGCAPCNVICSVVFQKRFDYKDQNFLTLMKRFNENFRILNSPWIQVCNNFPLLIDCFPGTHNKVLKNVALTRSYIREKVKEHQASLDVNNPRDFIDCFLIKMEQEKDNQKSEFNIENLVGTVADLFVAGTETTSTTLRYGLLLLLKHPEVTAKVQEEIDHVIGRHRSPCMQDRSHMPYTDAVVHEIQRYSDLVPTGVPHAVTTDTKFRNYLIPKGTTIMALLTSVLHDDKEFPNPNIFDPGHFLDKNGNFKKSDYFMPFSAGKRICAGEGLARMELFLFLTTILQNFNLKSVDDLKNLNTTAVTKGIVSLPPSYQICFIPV

In the case of COc1ccc2c3c([nH]c2c1)[C@H](CC(C)C)N1C(=O)[C@H](C)NC(=O)[C@@H]1C3 [Compound (I-1), (3S,6S,12aS)-6-isobutyl-9-methoxy-3-methyl-2,3,6,7,12,12a-hexahydropyrazino[1′,2′:1,6]pyrido[3,4-b]indole-1,4-dione], the IC50 [1] is reported as over 30 µM, the “Bioavailability (in words)” value [2] is reported as “high bioavailability” and the “Clearance (in words)” value [2] is reported as “low clearance”. For the same compound, the CL ([2]; IV-JVC, 2 mg/kg) was 25.7 mL/min/kg, the Vss ([2]; IV-JVC, 2 mg/kg) was 1.64 L/kg and the Tmax ([2]; PO-JVC, 20 mg/kg) was 1.3 h. For the same compound, the AUC [2, 10] was 4 µM·h, the half-life [2, 10] was 0.9 h and the AUC [2, 11] was 49 µM·h. The Cmax [2, 11] was 10.1 µM, the bioavailability [2, 11] was 123% and the half-life [2, 11] was 2 h. The IC50 at 12 min ([3]; pH 7.4, probe midazolam) was over 30 µM, the IC50 [4] was 18.5 µM and the IC50 [5, 12] was 0.6 µM. The IC50 [6] was over 30 µM, the IC50 [7] was over 30 µM and the IC50 [8] was 15.4 µM. The IC50 ([9]; Caco-2 cells, substrate 3H-digoxin) was over 30 µM and the “Selectivity for BCRP over P-gp” value ([9]; conclusion from Table 2) was “selective BCRP inhibitor”.

Compound COc1cc2[nH]c3c(c2cc1OC)C[C@H]1C(=O)N[C@@H](C)C(=O)N1[C@H]3CC(C)C [Compound 8, (3S,6S,12aS)-6-isobutyl-9,10-dimethoxy-3-methyl-2,3,6,7,12,12a-hexahydropyrazino[1′,2′:1,6]pyrido[3,4-b]indole-1,4-dione] has an IC50 [5, 12] of over 10 µM.

COc1cc2[nH]c3c(c2cc1C)C[C@H]1C(=O)N[C@@H](C)C(=O)N1[C@H]3CC(C)C [Compound 12, (3S,6S,12aS)-6-isobutyl-9-methoxy-3,10-dimethyl-2,3,6,7,12,12a-hexahydropyrazino[1′,2′:1,6]pyrido[3,4-b]indole-1,4-dione] gave an IC50 [5, 12] of 1.98 µM.

COc1ccc2c3c([nH]c2c1)[C@H](CC(C)C)N1C(=O)[C@H](C)NC(=O)[C@H]1C3 [Compound 4, (3S,6S,12aR)-6-isobutyl-9-methoxy-3-methyl-2,3,6,7,12,12a-hexahydropyrazino[1′,2′:1,6]pyrido[3,4-b]indole-1,4-dione] gave an IC50 [5, 12] of over 10 µM.

In the case of COc1ccc2c3c([nH]c2c1)[C@H](CC(C)C)N1C(=O)[C@H](CCC(=O)OC(C)(C)C)NC(=O)[C@@H]1C3 [Ko143, reference compound], the IC50 [1] is reported as over 30 µM, the AUC0-24 hr ([2]; IV-JVC, 2 mg/kg) is reported as 0.0856 µM·h and the CL ([2]; IV-JVC, 2 mg/kg) is reported as 1100 mL/min/kg. The T1/2 ([2]; IV-JVC, 2 mg/kg) was 0.2 h, the Vss ([2]; IV-JVC, 2 mg/kg) was 14.8 L/kg and the AUC0-24 hr ([2]; PO-JVC, 50 mg/kg) was 0.0722 µM·h. The Cmax ([2]; PO-JVC, 50 mg/kg) was 0.0214 µM, the F % ([2]; PO-JVC, 50 mg/kg) was 3% and the Tmax ([2]; PO-JVC, 50 mg/kg) was 2 h. It also gave an IC50 [3] of over 30 µM, an IC50 [4] of 14.7 µM and an IC50 [6] of over 30 µM. It also gave an IC50 [7] of 6 µM and an IC50 [8] of 17.5 µM.

Compound CC(C)C[C@H]1c2[nH]c3ccccc3c2C[C@H]2C(=O)N[C@@H](CCC(=O)OC(C)(C)C)C(=O)N21 [Ko134, reference compound] has an IC50 [5] of 3.25 µM.

For COc1cc2[nH]c3c(c2cc1OC)C[C@@H]1C(=O)N[C@@H](C)C(=O)N1[C@H]3CC(C)C [Compound 8A, (3S,6S,12aR)-6-isobutyl-9,10-dimethoxy-3-methyl-2,3,6,7,12,12a-hexahydropyrazino[1′,2′:1,6]pyrido[3,4-b]indole-1,4-dione], the IC50 [5] was over 10 µM.

COc1cc2[nH]c3c(c2cc1C)C[C@@H]1C(=O)N[C@@H](C)C(=O)N1[C@H]3CC(C)C [Compound 12A, (3S,6S,12aR)-6-isobutyl-9-methoxy-3,10-dimethyl-2,3,6,7,12,12a-hexahydropyrazino[1′,2′:1,6]pyrido[3,4-b]indole-1,4-dione] gave an IC50 [5, 12] of over 10 µM.
